Laboratory results reported in ChEMBL document CHEMBL1201862, “PubChem BioAssay data set” (2004).
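These data come from cells grown in 96-well plates and exposed to compound for 48 hours at five concentrations. GI50 = concentration required for 50% inhibition of growth.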 Active and inactive are the calls of the source. Rule as the data show it: active = GI50 up to about 1.1 µM and inactive = higher.

What was measured:
Test in all cases: NCI anticancer screen, dose series, 48 h
SNB-78 = tested on: SNB-78
LXFL 529 = tested on: LXFL 529
KM-20L2 = tested on: KM-20L2
DMS-273 = tested on: DMS-273
XF498 = tested on: XF498
DLD-1 = tested on: DLD-1
RXF 631 = tested on: RXF 631
M19-MEL = tested on: M19-MEL
HOP-18 = tested on: HOP-18

Measured: GI50

O=c1cc(O)cc2n1CCC2
inactive: SNB-78 > 100 µM | LXFL 529 > 100 µM | KM-20L2 > 100 µM | DMS-273 > 100 µM | XF498 > 100 µM | DLD-1 > 100 µM | RXF 631 > 100 µM

Cc1ccnc(NS(=O)(=O)c2ccc(NC3=CC(=O)C(=O)c4ccccc43)cc2)n1
inactive: SNB-78 > 100 µM | LXFL 529 > 100 µM | KM-20L2 > 100 µM | DMS-273 > 100 µM | XF498 > 100 µM | M19-MEL > 100 µM | DLD-1 > 100 µM | RXF 631 > 100 µM | HOP-18 > 100 µM

CC(C)(C)C1CCC(=O)C(C(O)CC2CC(=O)N(c3ccccc3)C(=O)C2)C1 (configuration not stated)
inactive: SNB-78 > 100 µM | LXFL 529 > 100 µM | KM-20L2 > 100 µM | DMS-273 > 100 µM | XF498 > 100 µM | M19-MEL > 100 µM | DLD-1 > 100 µM | RXF 631 56.8 µM | HOP-18 > 100 µM

FC(F)(F)c1ccc(/C=N/C23CC4CC(CC(C4)C2)C3)cc1
inactive: SNB-78 > 100 µM | KM-20L2 > 100 µM | DMS-273 > 100 µM

CCOC(=O)C(=O)Nc1cccc(Cl)c1C
inactive: SNB-78 > 100 µM | LXFL 529 > 100 µM | XF498 49.8 µM | M19-MEL > 100 µM | DLD-1 > 100 µM | RXF 631 > 100 µM | HOP-18 > 100 µM

CCCCNC(=O)NNC(=O)c1cc(/C=C/c2cccc([N+](=O)[O-])c2)ncn1
inactive: SNB-78 > 100 µM | LXFL 529 > 10 µM | KM-20L2 > 100 µM | DMS-273 > 100 µM | XF498 > 100 µM | M19-MEL > 100 µM | DLD-1 37.7 µM | RXF 631 > 100 µM | HOP-18 > 100 µM

CCN1N=CSC12C(=O)N(c1ccccc1)C(=O)N2c1ccccc1 (configuration not stated)
inactive: SNB-78 > 100 µM | LXFL 529 > 100 µM | KM-20L2 > 100 µM | XF498 32.7 µM | DLD-1 > 100 µM | RXF 631 > 100 µM | HOP-18 > 100 µM

O=c1cc(-c2ccccc2)c2cc3c(=O)ccoc3cc2o1
inactive: KM-20L2 > 100 µM | DMS-273 > 100 µM | XF498 > 100 µM | M19-MEL > 100 µM | DLD-1 77.4 µM

COc1ccc(S(=O)(=O)N(CC(=O)O)c2ccccc2)cc1
inactive: LXFL 529 > 100 µM | KM-20L2 > 100 µM | DMS-273 > 100 µM | M19-MEL > 100 µM | DLD-1 > 100 µM | HOP-18 > 100 µM

Cn1c(=O)nc2n(-c3ccc(Cl)cc3)c3ccc(Cl)cc3nc-2c1=O
inactive: SNB-78 14.8 µM | KM-20L2 4.88 µM

Cc1ccccc1C(=O)Oc1ccc(O)cc1
inactive: SNB-78 > 100 µM | KM-20L2 > 100 µM | DMS-273 > 100 µM | M19-MEL > 100 µM | DLD-1 > 100 µM | RXF 631 > 100 µM | HOP-18 > 100 µM

C[Si](C)(C)OC1(C#N)C2C3CC4C2C(=O)C2C4C3C21 (configuration not stated)
inactive: SNB-78 > 100 µM | LXFL 529 > 100 µM | KM-20L2 > 100 µM | DMS-273 > 100 µM | M19-MEL > 100 µM | DLD-1 > 100 µM | HOP-18 > 100 µM

COC(=O)/C(=N\NC(N)=O)C(C(=O)C(=O)Nc1ccccc1C(=O)OC)c1nc2ccc(C(=O)c3ccccc3)cc2nc1O (configuration not stated)
inactive: SNB-78 > 100 µM | LXFL 529 > 100 µM | KM-20L2 > 100 µM | DMS-273 > 100 µM | XF498 > 100 µM | M19-MEL > 100 µM | DLD-1 > 100 µM | RXF 631 > 100 µM | HOP-18 > 100 µM

CCN(CC)CCNC(=O)c1ccccc1NC(=O)C(=O)Nc1ccccc1C(=O)NCCN(CC)CC
inactive: SNB-78 > 100 µM | KM-20L2 37.7 µM | DMS-273 > 100 µM | M19-MEL 22.8 µM | DLD-1 63.4 µM | RXF 631 > 100 µM | HOP-18 > 100 µM

O=C1C2C3CC4C5C3C1C5C1(SCCS1)C42 (configuration not stated)
inactive: SNB-78 > 100 µM | LXFL 529 > 100 µM | KM-20L2 > 100 µM | DMS-273 > 100 µM | M19-MEL > 100 µM | DLD-1 > 100 µM | HOP-18 > 100 µM

COc1ccc(N2C(=O)[C@H]3CC(C)c4c([nH]c5ccccc45)[C@H]3C2=O)cc1 (some centres not stated)
inactive: SNB-78 5.08 µM | LXFL 529 4.14 µM | KM-20L2 2.99 µM | DMS-273 1.51 µM | XF498 4.76 µM | M19-MEL 2.13 µM | DLD-1 3.54 µM

O=C(N/N=C/c1cccc(O)c1O)N/N=C/c1cccc(O)c1O
inactive: SNB-78 34.8 µM | LXFL 529 16.7 µM | KM-20L2 29.3 µM | DMS-273 22.9 µM | XF498 19.1 µM | M19-MEL 22.4 µM | HOP-18 19.2 µM

O=C(Nc1ccc(C(F)(F)F)cc1[N+](=O)[O-])C(=O)C(C(=O)c1ccc2ccccc2c1)C1OC(=O)c2ccccc21 (configuration not stated)
inactive: SNB-78 10.1 µM | LXFL 529 5.18 µM | KM-20L2 20.6 µM | M19-MEL 8.89 µM | DLD-1 6.9 µM

CN(C)CC/C(=N\Nc1ccccc1)c1ccccc1
inactive: SNB-78 11.8 µM | XF498 3.89 µM | M19-MEL 25.2 µM | DLD-1 69.2 µM | HOP-18 31 µM

COc1ccc(C2Cc3cc(OC)c(OC)c(OC)c3C2=O)cc1 (configuration not stated)
inactive: SNB-78 > 100 µM | KM-20L2 > 100 µM | DMS-273 > 100 µM | XF498 2 µM | M19-MEL > 100 µM | DLD-1 > 100 µM | HOP-18 > 100 µM
